Results: US20070219348A1, “Mutations in the mineralocorticoid receptor ligand binding domain polypeptide that permit structural determination of low affinity ligand complexes and screening methods employing same” (priority 2006, published 2007)
Residue numbers refer to the chain shown, from its start. Read-outs that look alike come from different tables or passages of the source. Values belong to the molecule of their own block, whether it stands above or below them.

Key:
Reporter Alone = assay: Ligand binding affinities on MR constructs (Table 1), Reporter Alone; conditions: read-out: IC50 binding affinity, Reporter Alone
Procedure: (§1) As used herein, the terms “weakly binding ligand” and “weak ligand” are used interchangeably and mean a ligand that binds a receptor with low affinity. The binding strength of a ligand to a receptor can be experimentally measured using any of several procedures, as is generally known in the art. In some embodiments of the presently disclosed subject matter, ligand binding is measured using a competitive binding assay in which a ligand of interest competes with a labeled ligand for binding to a receptor. […] This quantitative measurement can be expressed as an IC50 value. Therefore, the greater the IC50 value of a ligand, the lower the binding affinity the ligand has for the receptor.
(§2) Cortisol has a hydroxyl attached to C11, where cortisone has a ketone.

MR = biological target: T1, MR (Homo sapiens, UniProt P08235); conditions: Quinkler & Stewart, 2003; cited from earlier work
T1 sequence (P08235 1-984): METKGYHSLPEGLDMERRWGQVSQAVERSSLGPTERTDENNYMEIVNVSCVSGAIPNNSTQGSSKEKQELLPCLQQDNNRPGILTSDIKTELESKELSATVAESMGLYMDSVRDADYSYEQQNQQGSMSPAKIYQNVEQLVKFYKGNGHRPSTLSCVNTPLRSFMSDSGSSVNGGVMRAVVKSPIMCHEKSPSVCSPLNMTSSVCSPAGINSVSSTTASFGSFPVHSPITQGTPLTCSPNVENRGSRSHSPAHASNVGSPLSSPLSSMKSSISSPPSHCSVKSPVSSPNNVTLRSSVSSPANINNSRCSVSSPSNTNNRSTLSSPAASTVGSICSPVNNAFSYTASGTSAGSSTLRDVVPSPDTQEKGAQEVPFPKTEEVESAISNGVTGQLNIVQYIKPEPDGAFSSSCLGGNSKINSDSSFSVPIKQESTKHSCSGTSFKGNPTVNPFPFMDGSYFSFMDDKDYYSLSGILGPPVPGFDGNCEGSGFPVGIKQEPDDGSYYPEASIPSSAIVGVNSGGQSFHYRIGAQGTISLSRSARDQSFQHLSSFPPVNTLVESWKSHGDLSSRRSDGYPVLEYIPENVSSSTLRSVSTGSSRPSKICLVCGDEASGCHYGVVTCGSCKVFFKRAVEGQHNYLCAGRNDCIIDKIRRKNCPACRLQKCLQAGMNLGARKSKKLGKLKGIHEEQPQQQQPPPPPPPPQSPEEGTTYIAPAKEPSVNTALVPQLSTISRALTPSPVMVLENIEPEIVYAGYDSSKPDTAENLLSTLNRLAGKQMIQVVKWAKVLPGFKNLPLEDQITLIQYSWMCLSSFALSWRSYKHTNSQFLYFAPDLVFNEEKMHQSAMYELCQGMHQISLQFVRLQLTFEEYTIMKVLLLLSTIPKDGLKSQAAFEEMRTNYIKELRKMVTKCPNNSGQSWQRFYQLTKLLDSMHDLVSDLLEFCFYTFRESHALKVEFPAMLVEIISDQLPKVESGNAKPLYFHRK

Wild type MR = biological target: T2, Wild type MR (Homo sapiens, UniProt P08235); assay: Ligand binding affinities on MR constructs (Table 1), wild type MR
T2 sequence (P08235 1-984): T1 sequence (P08235 1-984)
Procedure: as §1, §2

MR S810L = biological target: T3, MR S810L (Homo sapiens, UniProt P08235, S810L); assay: Ligand binding affinities on MR constructs (Table 1), MR S810L; conditions: read-out: IC50 binding affinity, MR S810L
T3 sequence (P08235 1-984 S810L): T1 sequence (P08235 1-984) with S810L
Procedure: as §1, §2

[1] = biological target: the molecule itself; assay: X-ray crystal structure of native MR LBD with deoxycorticosterone (crystal contact)

IC50 (Reporter Alone; in uM): > 10 µM
Molecule: C[C@]12CCC(=O)C=C1CC[C@@H]1[C@@H]2[C@@H](O)C[C@]2(C=O)[C@@H](C(=O)CO)CC[C@@H]12 [Aldosterone, aldosterone]

IC50 (Reporter Alone; cells printed in nM): 0.785 µM
IC50 (Wild type MR; Wild type MR, cells printed in nM, read-out: IC50 binding affinity, Wild type MR): 21 nM
IC50 (MR S810L): 20 nM
Molecule: C[C@]12CCC(=O)C=C1CC[C@@H]1[C@@H]2[C@@H](O)C[C@@]2(C)[C@H]1CC[C@]2(O)C(=O)CO [Cortisol, cortisol]
binding affinity for MR in words (MR): low nM binder

IC50 (Reporter Alone; in uM): > 10 µM
IC50 (Wild type MR; Wild type MR, in uM, read-out: IC50 binding affinity, Wild type MR): > 10000 nM
fold difference in IC50s between cortisone and cortisol (Wild type MR; wild type MR, transactivation assays): > 700 fold
IC50 (Wild type MR; wild-type MR, read-out: IC50 binding affinity, wild-type MR): > 10000 nM
IC50 (MR S810L): 20 nM
Molecule: C[C@]12CCC(=O)C=C1CC[C@@H]1[C@@H]2C(=O)C[C@@]2(C)[C@H]1CC[C@]2(O)C(=O)CO [Cortisone, cortisone]
binding affinity for MR in words (MR): micromolar binder

IC50 (Reporter Alone; in uM): > 10 µM
Molecule: CC(=O)[C@H]1CC[C@H]2[C@@H]3CCC4=CC(=O)CC[C@]4(C)[C@H]3CC[C@]12C [Progesterone, progesterone]

IC50 (Reporter Alone; cells printed in nM): 0.0036 µM
Molecule: CC(=O)S[C@@H]1CC2=CC(=O)CC[C@]2(C)[C@H]2CC[C@@]3(C)[C@@H](CC[C@@]34CCC(=O)O4)[C@H]12 [Spironolactone, spironolactone]

B1: Native (wild type) MR LBD (amino acids 712-984) (receptor)
chain: APAKEPSVNTALVPQLSTISRALTPSPVMVLENIEPEIVYAGYDSSKPDTAENLLSTLNRLAGKQMIQVVKWAKVLPGFKNLPLEDQITLIQYSWMCLSSFALSWRSYKHTNSQFLYFAPDLVFNEEKMHQSAMYELCQGMHQISLQFVRLQLTFEEYTIMKVLLLLSTIPKDGLKSQAAFEEMRTNYIKELRKMVTKCPNNSGQSWQRFYQLTKLLDSMHDLVSDLLEFCFYTFRESHALKVEFPAMLVEIISDQLPKVESGNAKPLYFHRK
notes: Crystallized with deoxycorticosterone; the final model holds residues 727-908 and 914-984; also called native MR; WT MR
binding result [1]: binds
